According to US20020026053A1, “Novel 3-(substituted) -2- indolinones compounds and use thereof as inhibitors of protein kinase activity” (priority 1997, published 2002):

Target: T1, EGFR (Homo sapiens, UniProt P00533)
T1 construct: endogenous in cells; host or cells: A431 cells (lysate, captured with SUMO1 anti-EGFR antibody)
Experiment: Biochemical EGFR Assay
Design: concentration or dose not given beside the values
Experimental: This assay measures the in vitro kinase activity of EGFR using ELISA.
1. Corning 96-well Elisa plates (Corning Catalog No. 25805-96).
2. SUMO1 monoclonal anti-EGFR antibody (Biochemistry Lab, SUGEN, Inc.).
3. PBS (Dulbecco's Phosphate-Buffered Saline, Gibco Catalog No. 450-1300EB).
6. A431 cell lysate (Screening Lab, SUGEN, Inc.)
9. Adenosine-5′-triphosphate (ATP, from Equine muscle, Sigma Cat. No. A-5394).
Prepare a 1.0 mM solution in dH2O. This reagent should be made up immediately prior to use and kept on ice.
Prepare a 1.0 M stock solution in dH2O.
11. ATP/MnCl2 phosphorylation mix
This reagent should be prepared immediately before use and kept on ice
12. NUNC 96-well V bottom polypropylene plates (Applied Scientific Cat. No. AS-72092).
13. Ethylenediaminetetraacetic acid (EDTA)
Prepare 200 mM working solution in dH2O. Adjust to pH 8.0 with 10 N NaOH.
14. Rabbit polyclonal anti-phosphotyrosine serum (Biochemistry Lab, SUGEN, Inc.)
15. Goat anti-rabbit IgG peroxidase conjugate (Biosource Cat. No. ALI0404)
16. ABTS (2,2′-azino-bis(3-ethylbenzthiazoline-6-sulfonic acid), Sigma Cat. No. A-1888).
Mix first two ingredients in about 900 ml dH2O, adjust pH to 4.0 with phosphoric acid. Add ABTS, cover, let sit about 0.5 hr., filter. The solution should be kept in the dark at 4° C. until ready to use.
17. Hydrogen peroxide 30% solution (Fisher Cat. No. H325)
Mix 15 ml ABTS solution and 2.0 μl H2O2. Prepare 5 minutes before use.
1. Coat Corning 96 well ELISA plates with 0.5 μg SUMO1 in 100 μl PBS per well, store overnight at 4° C.
2. Remove unbound SUMO1 from wells by inverting plate to remove liquid. Wash 1× with dH2O. Pat the plate on a paper towel to remove excess liquid.
3. Add 150 μl of Blocking Buffer to each well. Incubate for 30 min. at room temperature with shaking.
4. Wash plate 3× with deionized water, then once with TBST. Pat plate on a paper towel to remove excess liquid and bubbles.
5. Dilute lysate in PBS (7 μg lysate/100 μl PBS)
6. Add 100 μl of diluted lysate to each well. Shake at room temperature for 60 min.
7. Wash plates as described in 4, above.
8. Add 120 μl TBS to ELISA plate containing captured EGFR.
9. Dilute test compound 1:10 in TBS in 96-well polypropylene plates (ie. 10 μl compound+90 μl TBS).
10. Add 13.5 μl diluted test compound to ELISA plate.
11. Incubate for 30 minutes while shaking at room temperature.
13. After 5 minutes, stop reaction by adding 16.5 μl of 200 mM EDTA (pH 8.0) to each well, shaking continuously. After the EDTA has been added, shake for 1 min.
14. Wash 4× with deionized water, twice with TBST.
15. Add 100 μl anti-phosphotyrosine (1:3000 dilution in TBST) per well. Incubate 30-45 min. at room temperature, with shaking.
16. Wash as described in 4, above.
17. Add 100 μl Biosource Goat anti-rabbit IgG peroxidase conjugate (1:2000 dilution in TBST) to each well. Incubate 30 min. at room temperature, with shaking.
18. Wash as described in 4, above.
19. Add 100 μl of ABTS/H2O2 solution to each well.
20. Incubate 5 to 10 minutes with shaking. Remove any bubbles.
21. If necessary stop reaction with the addition of 100 μl 0.2 M HCl per well.
22. Read assay on Dynatech MR7000 ELISA reader. Test Filter: 410 nM Reference Filter: 630 nM

T1 sequence (P00533 25-1210): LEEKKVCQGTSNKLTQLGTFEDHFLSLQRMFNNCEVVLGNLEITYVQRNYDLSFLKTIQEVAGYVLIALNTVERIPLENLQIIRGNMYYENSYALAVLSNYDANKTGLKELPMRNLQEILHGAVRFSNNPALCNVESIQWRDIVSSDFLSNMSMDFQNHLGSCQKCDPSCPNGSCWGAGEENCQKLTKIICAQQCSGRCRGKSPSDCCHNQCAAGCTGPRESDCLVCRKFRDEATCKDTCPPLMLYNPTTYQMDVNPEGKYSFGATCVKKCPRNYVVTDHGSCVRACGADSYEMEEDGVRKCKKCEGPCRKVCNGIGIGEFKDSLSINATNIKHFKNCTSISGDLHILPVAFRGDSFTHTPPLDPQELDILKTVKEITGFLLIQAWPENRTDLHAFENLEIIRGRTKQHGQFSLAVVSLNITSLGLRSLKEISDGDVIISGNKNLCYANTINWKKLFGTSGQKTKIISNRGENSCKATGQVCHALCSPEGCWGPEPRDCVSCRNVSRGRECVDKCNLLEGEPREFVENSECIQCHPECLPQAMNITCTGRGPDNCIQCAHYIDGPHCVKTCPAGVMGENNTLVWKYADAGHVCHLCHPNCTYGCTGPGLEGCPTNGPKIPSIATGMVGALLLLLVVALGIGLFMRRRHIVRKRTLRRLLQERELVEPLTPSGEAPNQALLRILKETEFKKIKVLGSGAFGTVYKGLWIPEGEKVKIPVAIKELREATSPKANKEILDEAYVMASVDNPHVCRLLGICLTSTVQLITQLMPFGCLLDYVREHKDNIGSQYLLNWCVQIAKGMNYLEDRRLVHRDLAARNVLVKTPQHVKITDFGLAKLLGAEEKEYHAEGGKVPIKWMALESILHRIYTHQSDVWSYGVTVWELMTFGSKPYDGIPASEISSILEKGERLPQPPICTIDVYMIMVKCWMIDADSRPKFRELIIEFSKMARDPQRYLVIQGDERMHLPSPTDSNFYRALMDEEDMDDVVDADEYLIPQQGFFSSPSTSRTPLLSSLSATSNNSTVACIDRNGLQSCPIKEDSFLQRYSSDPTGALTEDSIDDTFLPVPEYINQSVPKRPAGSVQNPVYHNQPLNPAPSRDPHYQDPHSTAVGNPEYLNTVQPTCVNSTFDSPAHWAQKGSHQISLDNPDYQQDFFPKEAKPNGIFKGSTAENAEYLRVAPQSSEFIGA

Compound	Biochem EGFR % Inhibition (P.167)
Cc1c(Br)cc(Br)c2c1C(=Cc1ccc(F)cc1)C(=O)N2 [10717/H05]	−2.0%
Cc1c(Br)cc(Br)c2c1C(=Cc1c[nH]c3ccccc13)C(=O)N2 [10717/H06]	−16.8%
Cc1ccc(C=C2C(=O)Nc3c(Br)cc(Br)c(C)c32)s1 [10717/H07]	91.2%
Cc1c(Br)cc(Br)c2c1C(=Cc1ccc(Br)cc1)C(=O)N2 [10717/H08]	33.4%
Cc1c(Br)cc(Br)c2c1C(=Cc1ccc[nH]1)C(=O)N2 [10717/H09]	5.4%
COc1cccc(O)c1C=C1C(=O)Nc2c(Br)cc(Br)c(C)c21 [10717/H10]	0.5%
Cc1[nH]c(C=C2C(=O)Nc3c(Br)cc(Br)c(C)c32)c(Br)c1Br [10717/H11]	55.6%
Cc1c(Br)cc(Br)c2c1C(=Cc1ccc(Br)o1)C(=O)N2 [10726/H05]	2.2%
Cc1cn(C)cc1C=C1C(=O)Nc2c(Br)cc(Br)c(C)c21 [10726/H06]	−9.2%
Cc1c(Br)cc(Br)c2c1C(=Cc1cc(O)c3c(c1O)CCCC3)C(=O)N2 [10726/H07]	31.2%
Cc1c(Br)cc(Br)c2c1C(=C1C(=O)Nc3ccc(F)cc31)C(=O)N2 [10726/H08]	−16.6%
Cc1c(Br)cc(Br)c2c1C(=C1C(=O)Nc3ccccc31)C(=O)N2 [10726/H09]	−0.1%
CCc1ccc(C=C2C(=O)Nc3c(Br)cc(Br)c(C)c32)s1 [10726/H10]	12.0%
COc1ccc(C=C2C(=O)Nc3c(Br)cc(Br)c(C)c32)cc1 [10726/H11]	1.5%
CCN(CC)c1ccc(C=C2C(=O)Nc3c(Br)cc(Br)c(C)c32)cc1 [10727/H02]	−37.1%
CCc1cc(CC)c(C=C2C(=O)Nc3c(Br)cc(Br)c(C)c32)[nH]1 [10727/H03]	4.5%
Cc1c(Br)cc(Br)c2c1C(=Cc1cc(Cl)cc(Br)c1O)C(=O)N2 [10727/H04]	19.2%
Cc1c(Br)cc(Br)c2c1C(=Cc1ccccc1Sc1ccc(Cl)cc1)C(=O)N2 [10727/H05]	0.4%
Cc1c(Br)cc(Br)c2c1C(=Cc1cc3c(cc1Cl)OCO3)C(=O)N2 [10727/H06]	−35.8%
Cc1c(Br)cc(Br)c2c1C(=Cc1coc3ccccc3c1=O)C(=O)N2 [10727/H07]	−17.3%
Cc1c(Br)cc(Br)c2c1C(=Cc1cccc(C#N)c1)C(=O)N2 [10727/H08]	−8.0%
Cc1c(Br)cc(Br)c2c1C(=Cc1ccc(C#N)cc1)C(=O)N2 [10727/H09]	−6.1%
Cc1c(Br)cc(Br)c2c1C(=Cc1cc(O)ccc1O)C(=O)N2 [10727/H10]	83.6%
COc1cccc(C=C2C(=O)Nc3c(Br)cc(Br)c(C)c32)c1OC [10727/H11]	−3.5%
COc1ccc(OC)c(C=C2C(=O)Nc3c(Br)cc(Br)c(C)c32)c1 [10728/H02]	−36.6%
COc1cccc(OC)c1C=C1C(=O)Nc2c(Br)cc(Br)c(C)c21 [10728/H03]	3.5%
COc1cc(C=C2C(=O)Nc3c(Br)cc(Br)c(C)c32)cc(OC)c1 [10728/H04]	−0.6%

Compound	Biochem EGFR % Inhibition (P.167)
Cc1c(Br)cc(Br)c2c1C(=Cc1ccc3c(c1)Cc1ccccc1-3)C(=O)N2 [10728/H06]	−22.8%
Cc1c(Br)cc(Br)c2c1C(=Cc1cccc(C(F)(F)F)c1F)C(=O)N2 [10728/H07]	−25.8%
Cc1c(Br)cc(Br)c2c1C(=Cc1c(F)cccc1C(F)(F)F)C(=O)N2 [10728/H09]	−6.1%
Cc1c(Br)cc(Br)c2c1C(=Cc1ccccc1OCC(=O)O)C(=O)N2 [10728/H10]	−22.4%
COc1cc(C=C2C(=O)Nc3c(Br)cc(Br)c(C)c32)cc2c1OCO2 [10728/H11]	−25.6%
COc1ccc2ccccc2c1C=C1C(=O)Nc2c(Br)cc(Br)c(C)c21 [10729/H02]	−10.7%
COc1ccc(C=C2C(=O)Nc3c(Br)cc(Br)c(C)c32)c2ccccc12 [10729/H03]	30.3%
CSc1ccc(C=C2C(=O)Nc3c(Br)cc(Br)c(C)c32)cc1 [10729/H04]	−4.4%
Cc1ccsc1C=C1C(=O)Nc2c(Br)cc(Br)c(C)c21 [10729/H05]	−4.4%
Cc1c(Br)cc(Br)c2c1C(=Cc1cccc(Oc3ccccc3)c1)C(=O)N2 [10729/H06]	−10.3%
Cc1c(Br)cc(Br)c2c1C(=Cc1ccccn1)C(=O)N2 [10729/H07]	30.0%
Cc1c(Br)cc(Br)c2c1C(=Cc1cccnc1)C(=O)N2 [10729/H08]	8.7%
Cc1c(Br)cc(Br)c2c1C(=Cc1ccncc1)C(=O)N2 [10729/H09]	8.0%
Cc1c(Br)cc(Br)c2c1C(=Cc1ccc(N3CCCC3)cc1)C(=O)N2 [10729/H10]	2.1%
Cc1c(Br)cc(Br)c2c1C(=CC1C=CCCC1)C(=O)N2 (stereo not drawn) [10729/H11]	0.8%
COc1ccc(C=C2C(=O)Nc3c(Br)cc(Br)c(C)c32)c(OC)c1OC [10730/H02]	12.6%
COc1cc(OC)c(OC)cc1C=C1C(=O)Nc2c(Br)cc(Br)c(C)c21 [10730/H03]	−3.4%
COc1cc(C=C2C(=O)Nc3c(Br)cc(Br)c(C)c32)cc(OC)c1OC [10730/H04]	−29.5%
CC(=O)n1cc(C=C2C(=O)Nc3c(Br)cc(Br)c(C)c32)c2ccccc21 [10730/H05]	−20.1%
Cc1c(Br)cc(Br)c2c1C(=Cc1ccc(-c3ccccc3Cl)o1)C(=O)N2 [10730/H07]	−3.2%
Cc1c(Br)cc(Br)c2c1C(=Cc1cc3ccccc3nc1Cl)C(=O)N2 [10730/H08]	−15.8%
COC1CC(C=C2C(=O)Nc3c(Br)cc(Br)c(C)c32)C(OC)O1 (stereo not drawn) [10730/H10]	1.7%
Cc1cc(C=C2C(=O)Nc3c(Br)cc(Br)c(C)c32)oc1C [10730/H11]	26.4%
CCn1c2ccccc2c2cc(C=C3C(=O)Nc4c(Br)cc(Br)c(C)c43)ccc21 [10731/H02]	−9.5%
Cc1cc2occ(C=C3C(=O)Nc4c(Br)cc(Br)c(C)c43)c(=O)c2cc1C [10731/H03]	−1.5%
C=C(C)C1CC=C(C=C2C(=O)Nc3c(Br)cc(Br)c(C)c32)CC1 (stereo not drawn) [10731/H04]	−1.7%
Cc1c(Br)cc(Br)c2c1C(=Cc1coc3ccc(C(C)C)cc3c1=O)C(=O)N2 [10731/H05]	−3.6%
